# Measurements taken from US20090197926A1, “BENZIMIDAZOLES AND THEIR USE FOR THE TREATMENT OF DIABETES” (priority 2006, published 2009).
# Molecular target: T1, human DGAT1 (Homo sapiens, UniProt O75907)
# T1 construct: made in house; host or cells: Sf9 insect cells (recombinant baculovirus); membrane fraction
# T1 sequence (O75907 1-488): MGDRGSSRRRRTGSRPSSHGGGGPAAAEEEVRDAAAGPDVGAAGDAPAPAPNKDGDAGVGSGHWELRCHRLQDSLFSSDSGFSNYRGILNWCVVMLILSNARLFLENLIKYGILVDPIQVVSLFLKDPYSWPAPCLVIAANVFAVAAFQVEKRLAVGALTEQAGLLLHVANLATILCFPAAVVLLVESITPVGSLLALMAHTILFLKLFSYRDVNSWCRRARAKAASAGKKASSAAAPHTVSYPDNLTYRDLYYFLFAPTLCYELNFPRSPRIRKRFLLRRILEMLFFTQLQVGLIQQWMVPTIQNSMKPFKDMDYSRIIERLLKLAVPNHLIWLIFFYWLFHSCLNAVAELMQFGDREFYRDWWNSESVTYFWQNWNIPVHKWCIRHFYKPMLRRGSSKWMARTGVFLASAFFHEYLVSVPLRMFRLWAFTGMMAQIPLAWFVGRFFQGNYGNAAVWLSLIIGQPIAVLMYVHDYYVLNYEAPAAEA
# Test: Human Enzyme Assay (DGAT1 inhibition)
# Type: biochemical
# Settings: human DGAT1 expressed in insect cell (sf9) membranes; 14C oleoyl coenzyme A, 1,2 dioleoyl-sn-glycerol, room temperature 30 minutes
# Method: The in vitro assay to identify DGAT1 inhibitors uses human DGAT1 expressed in insect cell membranes as the enzyme source (Proc. Natl. Acad. Sci. 1998, 95, 13018-13023). Briefly, sf9 cells were infected with recombinant baculovirus containing human DGAT1 coding sequences and harvested after 48 h. Cells were lysed by sonication and membranes isolated by centrifuging at 28000 rpm for 1 h at 4° C. on a 41% sucrose gradient. The membrane fraction at the interphase was collected, washed, and stored in liquid nitrogen.
# DGAT1 activity was assayed by a modification of the method described by Coleman (Methods in Enzymology 1992, 209, 98-102). Compound at 1-10 μM was incubated with 0.4 μg membrane protein, 5 mM MgCl2, and 100 μM 1,2 dioleoyl-sn-glycerol in a total assay volume of 200 μl in plastic tubes. The reaction was started by adding ^14C oleoyl coenzyme A (30 μM final concentration) and incubated at room temperature for 30 minutes. The reaction was stopped by adding 1.5 mL 2-propanol:heptane:water (80:20:2). Radioactive triolein product was separated into the organic phase by adding 1 mL heptane and 0.5 mL 0.1 M carbonate buffer pH 9.5. DGAT1 activity was quantified by counting aliquots of the upper heptane layer by liquid scintillography.
row,Compound,IC50 [nM]
1,"N#Cc1ccc(Nc2nnc(-c3nc4cc([C@H]5CC[C@H](CC(=O)O)CC5)ccc4[nH]3)o2)cc1 [Example 4, [trans-4-(2-{5-[(4-Cyanophenyl)amino]-1,3,4-oxadiazol-2-yl}-1H-benzimidazol-5-yl)cyclohexyl]acetic Acid]",19
2,"O=C(O)C[C@H]1CC[C@H](c2ccc3[nH]c(-c4nnc(Nc5ccc(F)c(F)c5)o4)nc3c2)CC1 [Example 2, trans-2-[4-[2-[5-[(3,4-Difluorophenyl)amino]-1,3,4-oxadiazol-2-yl]-1H-benzoimidazol-5-yl]cyclohexyl]acetic Acid]",10
3,"(4-{2-[5-(3,4,5-Trifluorophenylamino)[1,3,4]oxadiazol-2-yl]-1H-benzimidazol-5-yl}cyclohexyl)acetic Acid [Example 11]",3
4,"O=C(O)C[C@H]1CC[C@H](c2ccc3[nH]c(-c4nnc(Nc5cc(F)c(F)cc5F)o4)nc3c2)CC1 [Example 1, trans-2-[4-[2-[5-[(2,4,5-Trifluorophenyl)amino]-1,3,4-oxadiazol-2-yl]-1H-benzoimidazol-5-yl]cyclohexyl]acetic Acid]",11
5,"O=C(O)C[C@H]1CC[C@H](c2ccc3[nH]c(-c4nnc(Nc5ccc6c(c5)OCCO6)o4)nc3c2)CC1 [Example 6, (4-{2-[5-(2,3-Dihydrobenzo[1,4]dioxin-6-ylamino)[1,3,4]oxadiazol-2-yl]-1H-benzimidazol-5-yl}cyclohexyl)acetic Acid]",54
6,"O=C(O)C[C@H]1CC[C@H](c2ccc3[nH]c(-c4nnc(Nc5cccc(OCc6ccccc6)c5)o4)nc3c2)CC1 [Example 3, {trans-4-[2-(5-{[3-(Benzyloxy)phenyl]amino}-1,3,4-oxadiazol-2-yl)-1H-benzimidazol-5-yl]cyclohexyl}acetic Acid]",6
7,"O=C(O)C[C@H]1CC[C@H](c2ccc3[nH]c(-c4nnc(Nc5ccc(Cl)cc5)o4)nc3c2)CC1 [Example 7, (4-{2-[5-(4-Chlorophenylamino)[1,3,4]oxadiazol-2-yl]-1H-benzimidazol-5-yl}-cyclohexyl)acetic Acid]",2

# The next lines start with the values.
row,IC50 [nM],Compound
1,13,"O=C(O)[C@H]1CC[C@@H](Oc2ccc3nc(-c4nnc(Nc5cc(F)c(F)cc5F)o4)[nH]c3c2F)CC1 [Example 17, cis-4-[[4-fluoro-2-[5-[(2,4,5-trifluorophenyl)amino]-1,3,4-oxadiazol-2-yl]-3H-benzoimidazol-5-yl]oxy]cyclohexane-1-carboxylic Acid]"
2,19,"O=C(O)[C@H]1CC[C@@H](Oc2ccc3nc(-c4nnc(Nc5ccc(F)cc5)o4)[nH]c3c2F)CC1 [Example 15, cis-4-{4-Fluoro-2-[5-(4-fluorophenylamino)-1,3,4-oxadiazol-2-yl]-1H-benzimidazol-5-yloxy}cyclohexanecarboxylic Acid]"
3,8,"O=C(O)C[C@H]1CC[C@H](c2ccc3[nH]c(-c4nnc(Nc5cccc(Cl)c5)o4)nc3c2)CC1 [Example 8, (4-{2-[5-(3-Chlorophenylamino)[1,3,4]oxadiazol-2-yl]-1H-benzimidazol-5-yl}-cyclohexyl)acetic Acid]"
4,16,"O=C(O)[C@H]1CC[C@H](Oc2ccc3nc(-c4nnc(Nc5cc(F)c(F)cc5F)o4)[nH]c3c2F)CC1 [Example 18, trans-4-[[4-fluoro-2-[5-[(2,4,5-trifluorophenyl)amino]-1,3,4-oxadiazol-2-yl]-3H-benzoimidazol-5-yl]oxy]cyclohexane-1-carboxylic Acid]"
5,23,"O=C(O)[C@H]1CC[C@H](Oc2ccc3nc(-c4nnc(Nc5ccc(F)cc5)o4)[nH]c3c2F)CC1 [Example 16, trans-4-{4-Fluoro-2-[5-(4-fluorophenylamino)-1,3,4-oxadiazol-2-yl]-1H-benzimidazol-5-yloxy}cyclohexanecarboxylic acid]"
6,10,"O=C(O)C[C@H]1CC[C@H](c2ccc3[nH]c(-c4nnc(Nc5ccc(F)cc5)o4)nc3c2)CC1 [Example 10, (4-{2-[5-(4-Fluorophenylamino)[1,3,4]oxadiazol-2-yl]-1H-benzimidazol-5-yl}cyclohexyl)acetic Acid]"
7,43,"O=C(O)[C@H]1CC[C@H](Oc2ccc3nc(-c4nnc(Nc5cc(F)c(F)cc5F)o4)[nH]c3c2)CC1 [Example 14, trans-4-[[2-[5-[(2,4,5-Trifluorophenyl)amino]-1,3,4-oxadiazol-2-yl]-3H-benzoimidazol-5-yl]oxy]cyclohexane-1-carboxylic Acid]"
